Assay results from US20240239752A1, “BICYCLIC HETEROAROMATIC INHIBITORS OF KLK5” (BioCryst Pharmaceuticals, Inc., priority 2021, published 2024).
pIC50: −log10 of the molar value.

Molecular target: T1, recombinant human KLK5 (Homo sapiens, UniProt Q9Y337)
T1 construct: purchased Novoprotein or R&D Systems C415 or 1108-SE
T1 sequence (Q9Y337 23-293): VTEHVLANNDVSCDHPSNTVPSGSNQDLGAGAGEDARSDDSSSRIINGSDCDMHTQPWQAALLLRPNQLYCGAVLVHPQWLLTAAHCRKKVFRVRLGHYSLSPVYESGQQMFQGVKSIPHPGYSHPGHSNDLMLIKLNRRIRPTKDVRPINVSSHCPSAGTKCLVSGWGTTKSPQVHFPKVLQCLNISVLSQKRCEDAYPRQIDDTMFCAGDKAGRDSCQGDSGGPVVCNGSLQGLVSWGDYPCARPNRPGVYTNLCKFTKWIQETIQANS
Assay: Kallikrein (KLK) 5 enzymatic assay (Boc-VPR-AMC fluorogenic substrate)
Assay type: biochemical
Details: recombinant human KLK5 0.1 μg/well, Boc-VPR-AMC 100 μM, pH 7.5, room temperature, 1% DMSO; tested a minimum of three times
Summary of the method: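 Recombinant human KLK5 (0.1 μg/well) was preincubated with compound at room temperature in 0.1 M NaH2PO4, pH 7.5, 1% DMSO, then started with 100 μM Boc-VPR-AMC. The rate was followed at 380/460 nm, and IC50 came from percent inhibition relative to enzyme alone, with at least three runs.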

pIC50, > 6.00:
CCOC(=O)N1CC[C@H](n2nc(COc3cccc(C)c3CC(=O)O)c3cc(-c4ccc5ccnc(N)c5c4)ccc32)C1 [Compound 343i, (S)-2-(2-((5-(1-aminoisoquinolin-7-yl)-1-(1-(ethoxycarbonyl)pyrrolidin-3-yl)-1H-indazol-3-yl)methoxy)-6-methylphenyl)acetic acid]
CCOC(=O)N1CC[C@H](n2nc(COc3cccc(C)c3CC(=O)O)c3cc(-c4cccc5c(N)nccc45)ccc32)C1 [Compound 344b, (S)-2-(2-((5-(1-aminoisoquinolin-5-yl)-1-(1-(ethoxycarbonyl)pyrrolidin-3-yl)-1H-indazol-3-yl)methoxy)-6-methylphenyl)acetic acid]
CCOC(=O)N1CC[C@H](n2nc(COc3ccccc3CC(=O)O)c3cc(-c4cccc5c(N)nccc45)ccc32)C1 [Compound 345e, (S)-2-(2-((5-(1-aminoisoquinolin-5-yl)-1-(1-(ethoxycarbonyl)pyrrolidin-3-yl)-1H-indazol-3-yl)methoxy)phenyl)acetic acid]
CCOC(=O)N1CC[C@H](n2nc(COc3ccccc3CC(=O)O)c3cc(-c4ccc5ccnc(N)c5c4)ccc32)C1 [Compound 346b, (S)-2-(2-((5-(1-aminoisoquinolin-7-yl)-1-(1-(ethoxycarbonyl)pyrrolidin-3-yl)-1H-indazol-3-yl)methoxy)phenyl)acetic acid]
CC(C)(C)OC(=O)N1CCC2(CC1)CC(Oc1ccccc1CC(=O)O)c1cc(-c3cccc4c(N)nccc34)ccc12 (centres unmarked) [Compound 347d, 2-(2-((5-(1-aminoisoquinolin-5-yl)-1′-(tert-butoxycarbonyl)-2,3-dihydrospiro[indene-1,4′-piperidin]-3-yl)oxy)phenyl)acetic acid]
CC(C)(C)OC(=O)N1CCC2(CC1)CC(Oc1ccccc1CC(=O)O)c1cc(-c3ccc4ccnc(N)c4c3)ccc12 (centres unmarked) [Compound 348b, 2-(2-((5-(1-aminoisoquinolin-7-yl)-1′-(tert-butoxycarbonyl)-2,3-dihydrospiro[indene-1,4′-piperidin]-3-yl)oxy)phenyl)acetic acid]
CCOC(=O)N1CCC2(CC1)CC(Oc1ccccc1CC(=O)O)c1cc(-c3ccc4ccnc(N)c4c3)ccc12 (centres unmarked) [Compound 349d, 2-(2-((5-(1-aminoisoquinolin-7-yl)-1′-(ethoxycarbonyl)-2,3-dihydrospiro[indene-1,4′-piperidin]-3-yl)oxy)phenyl)acetic acid]
Nc1nccc2ccc(-c3ccc4c(c3)C(Oc3ccccc3CC(=O)O)CC43CCOCC3)cc12 (centres unmarked) [Compound 350h, 2-(2-((5-(1-aminoisoquinolin-7-yl)-2,2′,3,3′,5′,6′-hexahydrospiro[indene-1,4′-pyran]-3-yl)oxy)phenyl)acetic acid]
Nc1nccc2c(-c3ccc4c(c3)C(Oc3ccccc3CC(=O)O)CC43CCOCC3)cccc12 (centres unmarked) [Compound 351b, 2-(2-((5-(1-aminoisoquinolin-5-yl)-2,2′,3,3′,5′,6′-hexahydrospiro[indene-1,4′-pyran]-3-yl)oxy)phenyl)acetic acid]
Cc1cccc(OC2CC3(CCOCC3)c3ccc(-c4ccc5ccnc(N)c5c4)cc32)c1CC(=O)O (centres unmarked) [Compound 352c, 2-(2-((5-(1-aminoisoquinolin-7-yl)-2,2′,3,3′,5′,6′-hexahydrospiro[indene-1,4′-pyran]-3-yl)oxy)-6-methylphenyl)acetic acid]
Cc1cccc(OC2CC3(CCOCC3)c3ccc(-c4cccc5c(N)nccc45)cc32)c1CC(=O)O (centres unmarked) [Compound 353b, 2-(2-((5-(1-aminoisoquinolin-5-yl)-2,2′,3,3′,5′,6′-hexahydrospiro[indene-1,4′-pyran]-3-yl)oxy)-6-methylphenyl)acetic acid]
Nc1nccc2c(-c3ccc4c(c3)C(Oc3ccccc3CC(=O)O)CC43CCCC3)cccc12 (centres unmarked) [Compound 354f, 2-(2-((5′-(1-aminoisoquinolin-5-yl)-2′,3′-dihydrospiro[cyclopentane-1,1′-inden]-3′-yl)oxy)phenyl)acetic acid]
Nc1nccc2ccc(-c3ccc4c(c3)C(Oc3ccccc3CC(=O)O)CC43CCCC3)cc12 (centres unmarked) [Compound 355b, 2-(2-((5′-(1-aminoisoquinolin-7-yl)-2′,3′-dihydrospiro[cyclopentane-1,1′-inden]-3′-yl)oxy)phenyl)acetic acid]
CCOC(=O)N1CC[C@H](n2nc(COc3cccc(C4CC4)c3CC(=O)O)c3cc(-c4ccc5ccnc(N)c5c4)ccc32)C1 [Compound 356e, (S)-2-(2-((5-(1-aminoisoquinolin-7-yl)-1-(1-(ethoxycarbonyl)pyrrolidin-3-yl)-1H-indazol-3-yl)methoxy)-6-cyclopropylphenyl)acetic acid]
CCOC(=O)N1CC[C@H](n2nc(COc3cccc(C4CC4)c3CC(=O)O)c3cc(-c4cccc5c(N)nccc45)ccc32)C1 [Compound 357b, (S)-2-(2-((5-(1-aminoisoquinolin-5-yl)-1-(1-(ethoxycarbonyl)pyrrolidin-3-yl)-1H-indazol-3-yl)methoxy)-6-cyclopropylphenyl)acetic acid]
CC(C)OC(=O)N1CC[C@H](n2nc(COc3ccccc3CC(=O)O)c3cc(-c4ccc5ccnc(N)c5c4)ccc32)C1 [Compound 358c, (S)-2-(2-((5-(1-aminoisoquinolin-7-yl)-1-(1-(isopropoxycarbonyl)pyrrolidin-3-yl)-1H-indazol-3-yl)methoxy)phenyl)acetic acid]
CC(C)OC(=O)N1CC[C@H](n2nc(COc3ccccc3CC(=O)O)c3cc(-c4cccc5c(N)nccc45)ccc32)C1 [Compound 359b, (S)-2-(2-((5-(1-aminoisoquinolin-5-yl)-1-(1-(isopropoxycarbonyl)pyrrolidin-3-yl)-1H-indazol-3-yl)methoxy)phenyl)acetic acid]
CC(C)COC(=O)N1CC[C@H](n2nc(COc3ccccc3CC(=O)O)c3cc(-c4ccc5ccnc(N)c5c4)ccc32)C1 [Compound 360c, (S)-2-(2-((5-(1-aminoisoquinolin-7-yl)-1-(1-(isobutoxycarbonyl)pyrrolidin-3-yl)-1H-indazol-3-yl)methoxy)phenyl)acetic acid]
CC(C)COC(=O)N1CC[C@H](n2nc(COc3ccccc3CC(=O)O)c3cc(-c4cccc5c(N)nccc45)ccc32)C1 [Compound 361b, (S)-2-(2-((5-(1-aminoisoquinolin-5-yl)-1-(1-(isobutoxycarbonyl)pyrrolidin-3-yl)-1H-indazol-3-yl)methoxy)phenyl)acetic acid]
CC(C)OC(=O)N1CC[C@@H](n2nc(COc3ccccc3CC(=O)O)c3cc(-c4ccc5ccnc(N)c5c4)ccc32)C1 [Compound 362c, (R)-2-(2-((5-(1-aminoisoquinolin-7-yl)-1-(1-(isopropoxycarbonyl)pyrrolidin-3-yl)-1H-indazol-3-yl)methoxy)phenyl)acetic acid]
CC(C)OC(=O)N1CC[C@@H](n2nc(COc3ccccc3CC(=O)O)c3cc(-c4cccc5c(N)nccc45)ccc32)C1 [Compound 363b, (R)-2-(2-((5-(1-aminoisoquinolin-5-yl)-1-(1-(isopropoxycarbonyl)pyrrolidin-3-yl)-1H-indazol-3-yl)methoxy)phenyl)acetic acid]
CC(C)COC(=O)N1CC[C@@H](n2nc(COc3ccccc3CC(=O)O)c3cc(-c4ccc5ccnc(N)c5c4)ccc32)C1 [Compound 364c, (R)-2-(2-((5-(1-aminoisoquinolin-7-yl)-1-(1-(isobutoxycarbonyl)pyrrolidin-3-yl)-1H-indazol-3-yl)methoxy)phenyl)acetic acid]
CC(C)COC(=O)N1CC[C@@H](n2nc(COc3ccccc3CC(=O)O)c3cc(-c4cccc5c(N)nccc45)ccc32)C1 [Compound 365b, (R)-2-(2-((5-(1-aminoisoquinolin-5-yl)-1-(1-(isobutoxycarbonyl)pyrrolidin-3-yl)-1H-indazol-3-yl)methoxy)phenyl)acetic acid]
Cc1cccc(OC2CC3(CCCC3)c3ccc(-c4cccc5c(N)nccc45)cc32)c1CC(=O)O (centres unmarked) [Compound 366c, 2-(2-((5′-(1-aminoisoquinolin-5-yl)-2′,3′-dihydrospiro[cyclopentane-1,1′-inden]-3′-yl)oxy)-6-methylphenyl)acetic acid]
Cc1cccc(OC2CC3(CCCC3)c3ccc(-c4ccc5ccnc(N)c5c4)cc32)c1CC(=O)O (centres unmarked) [Compound 367b, 2-(2-((5′-(1-aminoisoquinolin-7-yl)-2′,3′-dihydrospiro[cyclopentane-1,1′-inden]-3′-yl)oxy)-6-methylphenyl)acetic acid]
COC(=O)N1CCC2(CC1)CC(Oc1ccccc1CC(=O)O)c1cc(-c3ccc4ccnc(N)c4c3)ccc12 (centres unmarked) [Compound 370c, 2-(2-((5-(1-aminoisoquinolin-7-yl)-1′-(methoxycarbonyl)-2,3-dihydrospiro[indene-1,4′-piperidin]-3-yl)oxy)phenyl)acetic acid]
